ChEMBL document CHEMBL1157950, “Sarcophytonolides E-H, cembranolides from the Hainan soft coral Sarcophyton latum” (J Nat Prod, 2006)
Active and inactive are the calls of the source. The rule behind the calls is not given here.

Assays:
HL-60 = assay: Cytotoxicity against human HL60 cells at 20 ug/mL; assay type: functional, cell-based
A549 = assay: Cytotoxicity against human A549 cells at 20 ug/mL; assay type: functional, cell-based

| Compound | Activity (HL-60) | Activity (A549) |
| --- | --- | --- |
| CC(=O)O[C@H]1C/C(C)=C/CC/C(C)=C/[C@H](O)CC2=C[C@H](OC2=O)[C@@H]1C(C)C | inactive | inactive |
| C/C1=C\CC[C@H](C)C[C@H](O)CC2=C[C@@H](OC2=O)[C@H](C(C)C)CC1 | inactive | inactive |
| C/C1=C\[C@@H](O)CC2=C[C@@H](OC2=O)[C@H](C(C)C)CC/C(C)=C/CC1 | inactive | inactive |
| C/C1=C\[C@H](O)CC2=C[C@@H](OC2=O)[C@H](C(C)C)CC/C(C)=C/CC1 | inactive | inactive |
